{
  "source": "paper PMC7855930",
  "about": "“Nontoxic Cobalt(III) Schiff Base Complexes with Broad‐Spectrum Antifungal Activity” (Chemistry (Weinheim an Der Bergstrasse, Germany), 2020)",
  "key": {"[1]": {"test_system": "panel of eight Candida and Cryptococcus strains", "test": "Antifungal MIC, summary over the extended panel", "assay_type": "cell-based", "settings": "whole yeast panel, tested alone", "text": "Yeast strains: Candida albicans (ATCC 90028, NCCLS 11), Cryptococcus neoformans (ATCC 208821, H99 type strain), Candida tropicalis (ATCC 750, type strain), Candida glabrata (ATCC 90030, NCCLS 84) and Cryptococcus deuterogattii (ATCC 32609, type strain) were obtained from the American Type Culture Collection (ATCC). Cryptococcus deuterogattii (CBS 7750), Candida auris (CBS 10913) and Candida auris (CBS 12373) were obtained from the CBS‐KNAW culture collection. The strains were maintained on glycerol/YPD (yeast extract‐peptone dextrose) broth (20:80 v/v) at −80 °C.\nAntifungal minimum inhibitory concentration (MIC) assay: The cobalt complexes and antifungal control compounds were serially diluted in 50 μL of Yeast Nitrogen Broth (YNB; BD, Cat No. 233520 supplemented with 2 % glucose and 10 mM ammonium sulfate) two‐fold across the wells of non‐binding surface (NBS) 96‐well plates (Corning; Cat. No. 3641). […]\nYeast strains were cultured from glycerol onto YPD (Becton Dickinson 242720) agar at 30 °C for 72 h. For each strain, a minimum of five single colonies were taken from the agar plate and dissolved in sterile water and adjusted to form a yeast suspension of 1×10^6 to 5×10^6 CFU mL^−1 (as determined by OD530). […]\nGrowth inhibition of all strains was determined visually where the MIC was recorded as the lowest compound concentration with no visible growth. […]"}, "[2]": {"test": "Stability in water by 1H NMR (axial ligand exchange)", "assay_type": "physicochemical", "settings": "room temperature", "text": "Because our previous results had shown that complexes bearing weak axial donors are more biologically active, we sought to synthesise a very labile Co^III‐bis(thiosemicarbazone) complex by using a weakly donating pyridine axial monodentate ligand. We were unable to synthesise a complex using unsubstituted pyridine, probably because it is a such a weak donor ligand that it will not remain bound to the Co^III center even briefly, preventing isolation of the complex. However, we were able to isolate a complex (3) bearing the more electron‐donating 4‐(dimethylamino)pyridine (DMAP) ligand in the axial positions. As expected, this complex is extremely labile. […] In our hands, the bis‐aqua complex could not be isolated."}, "C. neoformans": {"test_system": "C. neoformans", "test": "CO-ADD screening, broth microdilution MIC, yeast reference strain", "assay_type": "cell-based", "text": "(§1) As previously mentioned, complexes 1, 2 and 4 were studied in earlier biological assays. […] In our CO‐ADD screening, using broth microdilution (BMD) MIC assays (Table S2), complexes 1–3 were effective at killing drug‐susceptible yeast reference strains of C. albicans and C. neoformans while displaying no antibacterial activity."}, "C. albicans": {"test_system": "C. albicans", "test": "CO-ADD screening, broth microdilution MIC, yeast reference strain", "assay_type": "cell-based", "text": "as §1"}},
  "data": [
    {"compound": "O=[N+]([O-])[O-].O=[N+]([O-])[O-].[Co+2]", "note": "[Co, Co(NO3)2, reference compound]", "values": [
      {"measurement": "MIC, no detectable antifungal effect up to", "setting": "[1]", "result": "> 100", "unit": "µM"}
    ]},
    {"compound": "CC1=[N+]2N=C(N)[S][Co-3]23([n+]2ccc(N(C)C)cc2)([n+]2ccc(N(C)C)cc2)[S]C(N)=N[N+]3=C1C.O=[N+]([O-])[O-]", "note": "[Compound 3, [Co(ATS)(DMAP)2]NO3]", "values": [
      {"measurement": "Stability on dissolution in water", "setting": "[2]; 1H NMR, on dissolution", "result": "immediately yields a mixture of species"},
      {"measurement": "Stability in water overnight", "setting": "[2]; incubation overnight", "result": "totally converted into the bis‐aqua complex"}
    ]},
    {"compound": "O=[N+]([O-])[O-].[NH3+][Co-3]123([NH3+])[O]c4c(F)cccc4C=[N+]1c1ccccc1[N+]2=Cc1cccc(F)c1[O]3", "note": "[Compound 7, [Co(3F‐salophen)(NH3)2]NO3]", "values": [
      {"measurement": "Antifungal activity, C. neoformans reference strain", "setting": "C. neoformans", "result": "neither antibacterial nor antifungal activity"},
      {"measurement": "Antifungal activity, C. albicans reference strain", "setting": "C. albicans", "result": "neither antibacterial nor antifungal activity"}
    ]}
  ]
}
